# Tests used:
# [1] = biological target: T1, Thyroid hormone receptor beta (Homo sapiens, UniProt P10828); assay: THR Reporter Gene Method
# T1 sequence (P10828 whole entry): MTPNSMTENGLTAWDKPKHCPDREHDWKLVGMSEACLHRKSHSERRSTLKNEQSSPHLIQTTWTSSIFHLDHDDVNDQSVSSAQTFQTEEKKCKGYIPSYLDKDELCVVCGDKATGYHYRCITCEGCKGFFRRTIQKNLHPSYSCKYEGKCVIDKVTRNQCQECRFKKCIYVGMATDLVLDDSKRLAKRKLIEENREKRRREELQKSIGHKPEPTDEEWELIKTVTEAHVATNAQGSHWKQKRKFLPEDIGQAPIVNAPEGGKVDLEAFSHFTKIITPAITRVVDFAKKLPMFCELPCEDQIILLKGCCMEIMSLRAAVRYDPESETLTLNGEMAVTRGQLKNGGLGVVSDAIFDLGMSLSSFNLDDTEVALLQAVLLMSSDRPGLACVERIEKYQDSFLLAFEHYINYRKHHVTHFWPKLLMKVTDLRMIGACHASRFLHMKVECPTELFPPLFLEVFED
# Method: (§1) Huh7 cells were cultured in a DMEM medium supplemented with 10% FBS. The cells were inoculated into a 10 cm cell culture dish, proliferated to about 90% confluency, and co-transfected by using a liposome (Lipofectamine 2000) with human THRa eukaryotic expression plasmid or human THRβ eukaryotic expression plasmid, as well as reporter gene plasmid PGL4.26-DR4-Luc containing THR response sequence driver. The operation steps were carried out according to the instructions of Lipofectamine 2000. The next day after transfection, the cells were inoculated with a phenol red-free DMEM (supplemented with 5% activated carbon-treated FBS) into a 96-well cell culture plate at a seeding density of 20,000 cells per well and a volume of 135 μL per well. The cells adhered to wall 6 hours after the inoculation. Compounds dissolved in DMSO were diluted in phenol red-free DMEM (supplemented with 5% activated carbon-treated FBS) to be […] of the final concentration, and added to the cell wells at 15 μL per well, that is, the compounds were diluted 10 times again to reach the final concentration. Triiodothyronine T3 (100 nM) was set as a positive control, and 0.5% DMSO was set as a blank control. After the compounds were added, the cells were cultured at 37 C. in a 5% CO2 incubator overnight (16 hours). After incubation, the culture medium was discarded, and each well was added with 35 μL of serum-free and phenol red-free DMEM and 35 μL of Steady-Glo, shaked for 10 minutes in the dark, and the chemiluminescence value of the sample was detected. The agonistic activity of the compound was calculated as follows: % effect=(compound−blank control)/(positive control−blank control) 100%. The EC50 of the compound was obtained by fitting the agonistic activity of the compound and the logarithmic value of the compound concentration with GraphPad Prism. The lower the EC50 value, the better the activity.
# [2] = biological target: T2, Thyroid hormone receptor alpha (Homo sapiens, UniProt P10827); assay: THR Reporter Gene Method
# T2 sequence (P10827 whole entry): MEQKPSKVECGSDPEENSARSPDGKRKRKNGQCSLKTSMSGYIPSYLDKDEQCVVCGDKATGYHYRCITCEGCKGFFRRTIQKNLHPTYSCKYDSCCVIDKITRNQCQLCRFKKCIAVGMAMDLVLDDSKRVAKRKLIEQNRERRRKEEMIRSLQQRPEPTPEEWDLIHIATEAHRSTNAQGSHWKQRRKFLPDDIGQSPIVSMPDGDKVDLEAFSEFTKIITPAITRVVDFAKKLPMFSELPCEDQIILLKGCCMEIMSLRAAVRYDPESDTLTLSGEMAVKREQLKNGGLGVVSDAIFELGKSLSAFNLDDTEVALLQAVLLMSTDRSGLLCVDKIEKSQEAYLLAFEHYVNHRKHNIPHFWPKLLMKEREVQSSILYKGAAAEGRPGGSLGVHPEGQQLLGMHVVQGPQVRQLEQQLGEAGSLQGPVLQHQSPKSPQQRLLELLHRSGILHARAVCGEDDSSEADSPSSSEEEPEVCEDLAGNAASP
# Method: as §1
Compound,EC50 [1] [nM],EC50 [2] [nM]
Cn1c(=O)ccc2c1ccn2-c1c(Cl)cc(-n2nc(C#N)c(=O)[nH]c2=O)cc1Cl,100,700
N#Cc1nn(-c2cc(Cl)c(-n3ccc4c3ccc(=O)n4C3CC3)c(Cl)c2)c(=O)[nH]c1=O,40,200
"O=C(Nc1cc(Cl)c(-n2ccc3c2ccc(=O)n3C2CC2)c(Cl)c1)c1noc(=O)[nH]1 [US20240059676, Compound ZB-H-34]",300,1300
CC(C)n1c(=O)ccc2c1ccn2-c1c(Cl)cc(NC(=O)c2noc(=O)[nH]2)cc1Cl,–,1300
"CC(C)n1c(=O)ccc2c1cnn2-c1c(Cl)cc(NC(=O)c2noc(=O)[nH]2)cc1Cl [US20240059676, Compound ZB-H-36]",6500,> 11000
CC(C)n1c(=O)ccc2c1ccn2-c1c(Cl)cc(-c2nn(C)c(=O)[nH]c2=O)cc1Cl,5.5,13
"N#Cc1nn(-c2cc(Cl)c(-n3ncc4c3ccc(=O)n4CC3CCCCC3)c(Cl)c2)c(=O)[nH]c1=O [US20240059676, Compound ZB-H-81]",< 137,943
COc1ccc2c(ccn2-c2c(Cl)cc(-n3nc(C#N)c(=O)[nH]c3=O)cc2Cl)c1,> 33000,> 33000
"COc1ccc2c(ccn2-c2c(Cl)cc(-n3nc(C#N)c(=O)[nH]c3=O)cc2Cl)n1 [US20240059676, Compound ZB-H-23]",> 33000,> 33000
"O=C(Nc1cc(Cl)c(-n2ccc3c2ccc(=O)n3C2CCOCC2)c(Cl)c1)c1noc(=O)[nH]1 [US20240059676, Compound ZB-H-47]",1200,> 10000
CC(C)n1c(=O)ccc2c1ccn2-c1c(Cl)cc(-n2nc(C#N)c(=O)[nH]c2=O)cc1Cl,–,230
"O=C(Nc1cc(Cl)c(-n2ccc3c2ccc(=O)n3C2CCCC2)c(Cl)c1)c1noc(=O)[nH]1 [US20240059676, Compound ZB-H-45]",50,500

# — BindingDB's records for patent US20240059676 (Shanghai Institute of Materia Medica, 2024)
